# Experimental data published in patent US20260217701A1, “SELECTIVE BET INHIBITORS AND USES THEREOF” (Tay Therapeutics Limited, priority 2022, published 2026).
# Read-outs that look alike come from different tables or passages of the source.
# Experiment: Dog PK study #3 (Compound A PO once daily 5 days, 5/10/20 mg/kg; PK, body weight, hematology)
# Type: in vivo, beagle dogs
# Conditions: for Tmax / AUC(0-inf) / Cmax / MRT inf / MRT last / half-life / AUC(0-t): male, beagle, dog, plasma, po; for AUC(0-inf): read-out: AUC0-inf; for Cmax: read-out: Cmax; for MRT inf: read-out: MRT0-inf; for MRT last: read-out: MRT0-last; for half-life: read-out: T½ (converted)
# Method: For the third dog pharmacokinetic study, three solutions of different concentrations of Compound A were prepared in 5% DMSO/15% PEG-400/80% (10% VE-TPGS) as outlined in Table 2E. The Compound A solutions were administered to animals orally (PO) once daily over a five-day period. Body weight was recorded prior to dosing, and detailed clinical observations were made prior to dosing and throughout the study, as needed.
# Animals were divided into Day 1 and Day 5 sample collection groups, with animals in the Day 1 collection group having blood samples taken prior to dosing and at 0.25, 0.5, 1, 2, 4, 8, and 24 hours after dosing on day 1. Animals in the Day 5 collection group having blood samples taken prior to dosing and at 0.25, 0.5, 1, 2, 4, 8, and 24 hours after dosing on day 5. Study groups are outlined in Table 3D.
# Blood samples (~0.3 mL) were collected on day according to the following schedule (0.25, 0.5, 1, 2, 4, 8, and 24 h) after day 5 administration of Compound A by venipuncture of peripheral veins except for the dosing vein, and EDTA-K2 was used as anticoagulant. Within 30 minutes of collection, the samples were centrifuged at approximately 2000 times g-force for 10 minutes at 4° C. to obtain blood plasma. The plasma samples were immediately divided into two aliquots (~75 μL each), transferred to a cryogenic vial, and stored in a freezer at −75±15° C. prior to analysis.
# The concentration of Compound A in the blood plasma was determined through LC-MS as previously described. Briefly, the experiments were conducted on a DMPK-LCMS-14-SMBA Triple Quad 6500 Plus instrument with an ACQUITY UPLC BEH C18 1.7 μm (50×2.1 mm) column. The matrix was male beagle dog plasma potassium (K2) EDTA A gradient of 95% water (0.1% formic acid and 2 mM HCOONH4)/95% acetonitrile (0.1% formic acid and 2 mM HCOONH4) was used as the mobile phase. The sample flow rate was 0.6 mL/min.
# The samples were then vortex-mixed for 10 minutes at 800 rpm and centrifuged for 15 minutes at 3220×g at 4° C. 50 μL aliquots of supernatant were transferred to a clean 96-well plate and centrifuged for 5 minutes at 3220×g at 4° C. Samples were then injected into the LC/MS/MS system for quantitative analysis.
# The gathered data were used for pharmacokinetic calculations using T1/2, CO, AUClast, AUCinf, MRTinf, Cl, Vss, and Number of Points for Regression as parameters.
# The cell composition (hematology) of blood samples was analyzed at day 5. Analyses identified the total number of white blood cells, neutrophils, lymphocytes, monocytes, eosinophils, basophils, and platelets in collected samples.
# [1] = 5 mg/kg, Day 1, 5 mg/kg dose PO, individual animals
# [2] = 5 mg/kg, Day 1, 5 mg/kg dose PO, mean
# [3] = 5 mg/kg, Day 5, 5 mg/kg dose PO, individual animals
# [4] = 5 mg/kg, Day 5, 5 mg/kg dose PO, mean
# [5] = 10 mg/kg, Day 1, 10 mg/kg dose PO, individual animals
# [6] = 10 mg/kg, Day 1, 10 mg/kg dose PO, mean
# [7] = 10 mg/kg, Day 5, 10 mg/kg dose PO, individual animals
# [8] = 10 mg/kg, Day 5, 10 mg/kg dose PO, mean
# [9] = 20 mg/kg, Day 1, 20 mg/kg dose PO, individual animals
# [10] = 20 mg/kg, Day 1, 20 mg/kg dose PO, mean
# [11] = 20 mg/kg, Day 5, 20 mg/kg dose PO, individual animals
# [12] = 20 mg/kg, Day 5, 20 mg/kg dose PO, mean
# [13] = single PO administration Day 1, 10.0 over 5.00 mg/kg, dose ratio 2.00
# [14] = single PO administration Day 1, 20.0 over 5.00 mg/kg, dose ratio 4.00
# [15] = single PO administration Day 1, 20.0 over 10.0 mg/kg, dose ratio 2.00
compound,measurement,setting,value
"Cn1cc(-c2ccccc2)c(-c2cn(C)c(=O)c3[nH]c(-c4cnn(C(F)(F)F)c4)cc23)cc1=O [Compound A, 6-methyl-4-(1-methyl-2-oxo-5-phenyl-1,2-dihydropyridin-4-yl)-2-(1-(trifluoromethyl)-1H-pyrazol-4-yl)-1,6-dihydro-7H-pyrrolo[2,3-c]pyridin-7-one]",Tmax,[1],8 h
same,AUC(0-inf),[1],7.88 µg·h/mL
same,Cmax,[1],785 ng/mL
same,MRT inf,[1],9.3 h
same,MRT last,[1],9.77 h
same,half-life,[1],5.63 h
same,AUC(0-t),[2],9.5 µg·h/mL
same,Tmax,[2],6 h
same,Cmax,[2],736 ng/mL
same,MRT last,[2],8.8 h
same,AUC(0-t),[3],17.8 µg·h/mL
same,Tmax,[3],2 h
same,Cmax,[3],1270 ng/mL
same,MRT inf,[3],20 h
same,MRT last,[3],9.78 h
same,AUC(0-t),[4],14.5 µg·h/mL
same,Tmax,[4],2 h
same,AUC(0-inf),[4],18.9 µg·h/mL
same,Cmax,[4],1160 ng/mL
same,MRT inf,[4],15.1 h
same,MRT last,[4],8.93 h
same,half-life,[4],9.96 h
same,AUC(0-t),[5],19.5 µg·h/mL
same,Tmax,[5],4 h
same,AUC(0-inf),[5],20.5 µg·h/mL
same,Cmax,[5],2010 ng/mL
same,MRT inf,[5],8.8 h
same,MRT last,[5],7.59 h
same,half-life,[5],5.24 h
same,AUC(0-t),[6],17.5 µg·h/mL
same,Tmax,[6],3 h
same,AUC(0-inf),[6],18.6 µg·h/mL
same,Cmax,[6],1730 ng/mL
same,MRT inf,[6],9.17 h
same,MRT last,[6],7.72 h
same,half-life,[6],5.6 h
same,AUC(0-t),[7],20.5 µg·h/mL
same,Tmax,[7],2 h
same,AUC(0-inf),[7],23 µg·h/mL
same,Cmax,[7],1740 ng/mL
same,MRT inf,[7],11.3 h
same,MRT last,[7],8.5 h
same,half-life,[7],7.3 h
same,AUC(0-t),[8],28.3 µg·h/mL
same,Tmax,[8],2 h
same,AUC(0-inf),[8],34.1 µg·h/mL
same,Cmax,[8],2260 ng/mL
same,MRT inf,[8],13.4 h
same,MRT last,[8],8.95 h
same,half-life,[8],8.8 h
same,AUC(0-t),[9],49.4 µg·h/mL
same,Tmax,[9],4 h
same,Cmax,[9],4330 ng/mL
same,MRT inf,[9],9.65 h
same,MRT last,[9],8.19 h
same,AUC(0-t),[10],67.9 µg·h/mL
same,Tmax,[10],4 h
same,AUC(0-inf),[10],84.7 µg·h/mL
same,Cmax,[10],5160 ng/mL
same,MRT inf,[10],13.9 h
same,MRT last,[10],9.15 h
same,half-life,[10],8.67 h
same,Tmax,[11],2 h
same,Cmax,[11],3510 ng/mL
same,AUC(0-t),[12],30.2 µg·h/mL
same,Tmax,[12],2 h
same,AUC(0-inf),[12],1070 µg·h/mL
same,Cmax,[12],2860 ng/mL
same,MRT inf,[12],483 h
same,MRT last,[12],6.3 h
same,half-life,[12],334 h
same,mortality,"one animal of the highest dose, 5 day PO study",found dead on day 6
same,AUC0-last Ratio (dose proportionality),[13],1.85
same,Cmax Ratio (dose proportionality),[13],2.35
same,AUC0-last Ratio (dose proportionality),[14],7.15
same,Cmax Ratio (dose proportionality),[14],7.02
same,AUC0-last Ratio (dose proportionality),[15],3.87
same,Cmax Ratio (dose proportionality),[15],2.99
